Data taken from US20250195412A1, “PHARMACEUTICAL FORMULATIONS OF R-KETAMINE” (priority 2022, published 2025).
≈ marks a conversion by molar mass, not a printed value. Where “and” joins values, the source holds several entries; their conditions need not be identical. Identical values can stand only once. Entries after “also recorded” stand apart in the source; their conditions may differ.

Tests used:
[1] = Log P (general properties)
[2] = Citrate buffer: tonicity by freezing point depression; type: physicochemical
Method: (§1) One finding from the previous Examples was that there is a range between pH 5 and 6 in which 60 mg/ml API can be dissolved. Strong precipitation of the free base only occurs above a pH of 5.9 according to the observation. Based on this observation, it was decided to investigate two compendial buffer systems (citrate and phosphate buffer) for their ability to hold 60 mg/ml of R-ketamine in solution and stabilize the formulation against pH shifts. Another change was that the pH adjustment was done with 0.15 N NaOH instead of 1 N NaOH in the following experiments. This change was underdone because there were concerns that the very alkaline microenvironment around the drops of sodium hydroxide solution would lead to the formation of flakes that were difficult to dissolve.
(§2) The ingredients for a 20 mM buffer and the appropriate amount of R-ketamine HCl (60 mg/ml, equaling 52.2 mg/ml free base) were weighed together and diluted in water for injection. Subsequently, the pH was adjusted, e.g. to 5.2. After filling up to the target volume, the mixture was stirred for a defined time and a sample was obtained under filtration (0.22 μm). This sample was analyzed for content by HPLC and for tonicity by freezing point depression.

[3] = Cyclodextrin inclusion: API content of filtered solution by HPLC; type: physicochemical; conditions: nominal 100 mg/ml (86.96 mg/ml free base)
Method: (§3) The effect of hydroxypropyl β-cyclodextrin (HPB) on the solubility of R-ketamine at different pH values was investigated. Varied factors were pH of the solution and the concentration of HPB. Response factors were tonicity, which was determined by freezing point depression, and API content, which was measured by HPLC, of a filtered (0.22 μm) solution.
(§4) After dissolving the active ingredient (100 mg/ml, 86.96 mg/ml free base), a defined amount of HPB was added. After complete solution of the two components, the target pH was adjusted with sodium hydroxide solution (1 M). The resulting solution was filtered through a syringe filter (0.22 μm) and analyzed by HPLC and freezing point depression. A separate protocol was prepared for each individual experiment.

[4] = pH dependence of solubility / precipitation of the free base in water; type: physicochemical
Method: From pH 5.5, the free base consequently precipitates, if this is not prevented by the addition of suitable excipients.
as §1
The solubility of R-ketamine is strongly pH dependent. In the acidic pH range, the active ingredient is readily soluble, while precipitation occurs at pH values greater than 5.7-5.9. A careful choice of formulation parameters allows the requirements of the application route to be reconciled with the dissolution behavior of the active ingredient. The way in which the pH is adjusted also has a major influence. By using low-concentration alkalis, the formation of highly alkaline microenvironments around the dropping point could be avoided. This prevents the formation of active ingredient flocs that are difficult to dissolve again.

[5] = Cyclodextrin inclusion: tonicity by freezing point depression; type: physicochemical
Method: as §3, §4

[6] = Phosphate buffer: tonicity by freezing point depression; type: physicochemical
Method: as §2
(§5) Based on the previous results from the citrate buffer series experiment, the experiments with the phosphate buffer could be limited to pH 5.8. The nominal concentrations 60 and 70 mg/ml were investigated.
(§6) The solution was prepared and tested as described for the citrate buffer.

[7] = pH 5.5
[8] = Orientative stability examination of phosphate-buffered formulation, room temperature storage; type: physicochemical; conditions: 60 mg/mL in phosphate buffer pH 5.8, room temperature, two weeks
[9] = Cosolvent screening: assay of filtered sample by HPLC; type: physicochemical
Method: (§7) For cosolvent screening, a set of possible candidates was identified. Specifically, 5% sulfobutyl-ether-β-cyclodextrin (SBE7), polyethylene glycol 400 (PEG 400), glycerol, propylene glycol, and 5% polysorbate 80 were to be screened at pH 5 and 6. Unless otherwise specified, cosolvents were screened at 20% and 50% (m/V). As a control, the solubility of R-ketamine in water was studied at pH 5 and 6.
(§8) The test solution consisting of water for injection. The respective cosolvent was prepared and the active substance was dissolved to a nominal concentration of 100 mg/ml (equaling 86.96 mg/ml free base). The pH was then adjusted to pH 5 with 1N NaOH and a sample was obtained under filtration (0.22 μm). Thereafter, the pH was further increased to pH 6 and another sample was taken (also filtered). Both samples were analyzed for assay and tonicity by HPLC and freezing point depression.
(§9) • Batch size: 90 g/pH set at end of compounding (1N NaOH/1N HCl)

[10] = Citrate buffer: content of filtered sample by HPLC, visual precipitation; type: physicochemical
Method: as §1, §2

[11] = Initial tests with maleic acid buffering: dissolution behaviour and pH; type: physicochemical
Method: Due to its ability to act as a buffer in the acidic to neutral range, a 0.02 M aqueous maleic acid solution was proposed as the base formulation. The aim was to investigate the dissolving capacity for R-ketamine in the concentration range of 60, 80 and 100 mg/ml at pH 5.5 and 5.7 (after the feasibility test with a pH of 5.8 had to be considered as failed) and the stability of the formulations in a study for four weeks.
In an initial feasibility test, the dissolution behaviour of R-ketamine was investigated in the presence of maleic acid. Pure water was used as a comparison. In an aqueous solution of 60 mg/ml R-ketamine without buffering, a pH of 4.65 was obtained. If the same amount of R-ketamine was dissolved in a 0.02 M maleic acid buffer adjusted to pH 5.75, the pH decreased to a value of 5.38.

[12] = Hygroscopicity, DVS experiments; type: physicochemical; conditions: between 50% RH to 90% RH in DVS experiments
[13] = Cosolvent screening: tonicity by freezing point depression; type: physicochemical
Method: as §7, §8, §9

[14] = Phosphate buffer: content of filtered sample by HPLC, visual precipitation; type: physicochemical
Method: as §2, §5, §6

[15] = Solubility profile in solvents
[16] = 60 mg/ml in 20 mM citrate buffer, pH 5.4
[17] = 60 mg/ml in 20 mM citrate buffer, pH 5.6
[18] = 60 mg/ml in 20 mM citrate buffer, pH 5.8
[19] = Cyclodextrin (HPB) 20 %, pH 4.5
[20] = Cyclodextrin (HPB) 20 %, pH 7.5
[21] = phosphate buffer pH 5.8, nominal 60 mg/ml (52.2 mg/ml free base)
[22] = phosphate buffer pH 5.8, nominal 70 mg/ml (60.9 mg/ml free base)
[23] = 70 mg/ml (60.9 mg/ml free base) in citrate buffer, pH 5.8

CN[C@@]1(c2ccccc2Cl)CCCCC1=O [R-ketamine, (2R)-2-(2-chlorophenyl)-2-(methylamino)cyclohexan-1-one]
logP [1]: 2.18 | Tonicity ([2]; 60 mg/ml in 20 mM citrate buffer, pH 5.2): 534 mOsmol/kg | Tonicity [2, 16]: 540 mOsmol/kg | Tonicity [2, 17]: 546 mOsmol/kg | Tonicity [2, 18]: 561 mOsmol/kg | Tonicity ([2]; 70 mg/ml in citrate buffer, pH 5.8): 556 mOsmol/kg | Assay ([3]; Cyclodextrin (HPB) 0 %, pH 4.5): 88.9 mg/mL | Assay ([3]; Cyclodextrin (HPB) 0 %, pH 7.5): 0.9 mg/mL | Assay ([3]; Cyclodextrin (HPB) 10 %, pH 6): 26.8 mg/mL and 29.6 mg/mL | Assay [3, 19]: 93.9 mg/mL | Assay [3, 20]: 11.1 mg/mL | pH from which the free base precipitates ([4]; in water, without suitable excipients, Henderson-Hasselbalch, FIG. 1): ≥ 5.5 | pH above which precipitation of the free base occurs ([4]; observed in the experiments): > 5.9 and 5.7-5.9 | API that can be dissolved ([4]; range between pH 5 and 6): 60 mg/mL | Tonicity ([5]; Cyclodextrin (HPB) 0 %, pH 4.5): 644 mOsmol | Tonicity ([5]; Cyclodextrin (HPB) 0 %, pH 7.5): 522 mOsmol | Tonicity ([5]; Cyclodextrin (HPB) 10 %, pH 6): 680 mOsmol and 683 mOsmol | Tonicity [5, 19]: 638 mOsmol | Tonicity [5, 20]: 546 mOsmol | pKa (pKa (general properties)): 7.5 | Tonicity [6, 21]: 476 mOsmol/kg | Tonicity [6, 22]: 545 mOsmol/kg | decrease of pH over the study, average [7]: 0.2 pH units | four-week stability assay [7]: satisfactory stability | shelf life / precipitation on storage [8]: fine crystalline precipitate was observed; also recorded: precipitation | Assay ([9]; Glycerol 20%, pH 6.0): 19.1 mg/mL | Assay ([9]; Glycerol 50%, pH 6.0): 20.2 mg/mL | Assay ([9]; PEG 20%, pH 6.0): 19.9 mg/mL | Assay ([9]; PEG 50%, pH 6.0): 21.6 mg/mL | Assay ([9]; Propylene glycol 20%, pH 6.0): 24.5 mg/mL | Assay ([9]; Propylene glycol 50%, pH 6.0): 46.5 mg/mL | Assay ([9]; Tween 5%, pH 5.0): 89.2 mg/mL | Assay ([9]; Tween 5%, pH 6.0): 18.8 mg/mL | Assay ([9]; Water for injection, pH 5.0, nominal 100 mg/ml (86.96 mg/ml free base)): 88.6 mg/mL | Assay ([9]; Water for injection, pH 6.0): 19.7 mg/mL | Assay ([10]; 60 mg/ml (52.2 mg/ml free base) in 20 mM citrate buffer, pH 5.2): 46.2 mg/mL | Assay [10, 16]: 46.1 mg/mL | Assay [10, 17]: 46.4 mg/mL | Assay [10, 18]: 47.2 mg/mL | visual precipitation ([10]; 60 mg/ml in citrate buffer, pH 5.2-5.8): no precipitation could be detected visually | content found ([10]; 60 mg/ml in citrate buffer, range of pH 5.2-5.8): about 46.5 mg/ml | Assay [10, 23]: 46.2 mg/mL | precipitation after pH adjustment [10, 23]: precipitation was observed | pH after dissolving ([11]; 60 mg/ml in 0.02 M maleic acid buffer adjusted to pH 5.75): 5.38 | pH obtained ([11]; aqueous solution of 60 mg/ml R-ketamine without buffering): 4.65 | precipitation on raising the pH to 5.8 ([11]; maleic acid buffer, pH raised to 5.8 with 0.15 M NaOH): without precipitation | Hygroscopicity [12]: Not hygroscopic, no moisture uptake | Tonicity ([13]; Glycerol 20%, pH 6.0): 1445 mOsmol | Tonicity ([13]; PEG 20%, pH 6.0): 695 mOsmol | Tonicity ([13]; Tween 5%, pH 5.0): 686 mOsmol | Tonicity ([13]; Tween 5%, pH 6.0): 602 mOsmol | Tonicity ([13]; Water for injection, pH 5.0): 651 mOsmol | Tonicity ([13]; Water for injection, pH 6.0): 568 mOsmol | Assay [14, 21]: 51.2 mg/ml free base | Assay [14, 22]: 59.7 mg/ml free base | visible precipitation after pH adjustment and filtration ([14]; phosphate buffer pH 5.8, nominal 60 and 70 mg/ml): no visible precipitation | Solubility Classification (EP) ([15]; 1-propanol): Sparingly soluble | solubility ([15]; 1-propanol, organic solvent or mixture): 13 to 15 mg/mL (≈ 54.7 to 63.1 mM) | Solubility Classification (EP) ([15]; 2-propanol): Slightly soluble | solubility ([15]; 2-propanol, organic solvent or mixture): ~4 mg/mL (≈ 16.8 mM) | Solubility Classification (EP) ([15]; Acetone, acetonitrile, anisole, ethyl acetate, heptane, methyl ethyl ketone, methyl iso-butyl ketone, tetrahydrofuran, methyl tert-butyl ether): Very slightly soluble | Solubility Classification (EP) ([15]; DMSO, Ethanol): Sparingly soluble | solubility ([15]; DMSO, ethanol, organic solvent or mixture): 20 to 30 mg/mL (≈ 84.1 to 126 mM) | Solubility Classification (EP) ([15]; Methanol): Soluble | Solubility Classification (EP) ([15]; Water): Freely soluble | solubility ([15]; methanol, organic solvent or mixture): 50 to 100 mg/mL (≈ 210 to 421 mM) | solubility ([15]; organic solvent or mixture): < 1 mg/mL | solubility ([15]; water): > 140 mg/mL | solubility ([15]; water, pH 4, water): > 140 mg/mL
